Assay results reported in US9453014B2, “Cyclic amide derivatives as inhibitors of 11-β-hydroxysteroid dehydrogenase and uses thereof” (CONNEXIOS LIFE SCIENCES PVT. LTD., priority 2011, dated 2016).

Legend:
[1] = molecular target: T1, human full length HSD11 β 1 (Homo sapiens, UniProt P28845); experiment: In Vitro HSD11β1 Inhibition Assay; type: cell-based; conditions: CHO cells transiently expressing human HSD11β1; 200 nM cortisone+500 uM NADPH overnight; cortisone to cortisol by LC/MS-MS; read-out: 11βHSD1 (IC50)
T1 construct: transient expression of human full length HSD11 β 1 expression vector; host or cells: CHO cells (transient transfection)
Summary of the method: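 CHO cells transiently transfected with human full-length HSD11β1 were re-seeded after 24 h and, 24 h later, incubated overnight with 200 nM cortisone plus 500 uM NADPH and inhibitor. Cortisone-to-cortisol conversion was measured by LC/MS-MS. IC50 from an 8-point log concentration–inhibition curve.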

[2] = phase IIa trial, type 2 diabetes, 28-days; cited from earlier work

T1 sequence (P28845 whole entry): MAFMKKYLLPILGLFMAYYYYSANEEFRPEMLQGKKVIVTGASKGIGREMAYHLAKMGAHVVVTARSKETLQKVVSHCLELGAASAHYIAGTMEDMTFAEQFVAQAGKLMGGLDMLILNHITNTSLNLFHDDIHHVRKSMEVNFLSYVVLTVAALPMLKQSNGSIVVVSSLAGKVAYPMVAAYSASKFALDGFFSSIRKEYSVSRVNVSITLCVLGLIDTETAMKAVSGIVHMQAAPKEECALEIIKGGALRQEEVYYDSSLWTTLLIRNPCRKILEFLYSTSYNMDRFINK

CC(C)C(CC(=O)N1CCC(C(=O)O)C2CCCCC21)c1c[nH]c2cc(Cl)ccc12 (centres unmarked) [Example 185, 1-[3-(6-chloro-1H-indol-3-yl)-4-methylpentanoyl]decahydroquinoline-4-carboxylic acid]
IC50 [1]: 150 to 200 nM

O=C(O)C1CCC2C(CCCN2C(=O)CC(c2ccccc2)c2c[nH]c3cccc(F)c23)C1 (centres unmarked) [Example 186, 1-[3-(4-fluoro-1H-indol-3-yl)-3-phenylpropanoyl]decahydroquinoline-6-carboxylic acid]
IC50 [1]: < 100 nM

CCC(CC(=O)N1CCC(C(=O)O)C2CCCCC21)c1c[nH]c2cccc(Cl)c12 (centres unmarked) [Example 187, 1-[3-(4-chloro-1H-indol-3-yl)pentanoyl]decahydroquinoline-4-carboxylic acid]
IC50 [1]: > 250 nM

O=C(O)C1CCCC2C1CCCN2C(=O)CC(c1ccccc1)c1c[nH]c2cccc(F)c12 (centres unmarked) [Example 188, 1-[3-(4-fluoro-1H-indol-3-yl)-3-phenylpropanoyl]decahydroquinoline-5-carboxylic acid]
IC50 [1]: < 100 nM

CNC(=O)c1ccc(-c2ccc(C3(C(=O)N4CC[C@@]5(C4)OC(=O)c4ccccc45)CC3)cc2)cn1 [INCB13739]
safety and tolerability [2]: safe and well tolerated without any serious side effects and hypoglycemia
